Earlier results as cited in US20070110808A1, “Extended release osmo-microsealed formulation” (ALEMBIC LIMITED, priority 2003, published 2007).

Settings: compressed tablets, 75 to 350 mg/day in divided doses two or three times a day

COc1ccc(C(CN(C)C)C2(O)CCCCC2)cc1.Cl (centres unmarked) [Venlafaxine Hydrochloride, 1-[2-(dimethylamino)-1-(4-methoxyphenyl)ethyl]cyclohexanol Hydrochloride]
patients experiencing nausea: about forty five | patients in whom vomiting occurs: about seventeen
